Patent US10238670B2, “9-aminomethyl minocycline compounds and methods of use thereof in urinary tract infection (UTI) treatment” (Paratek Pharmaceuticals, Inc., priority 2016, dated 2019)
Where two headings read alike, the source gives them in different places.

Test: Phase 1b study in female adults with cystitis, plasma PK
Format: in vivo, human
Conditions: for Cmax / AUC(0-t) / Tmax / AUC(0-inf) / half-life / concentration at 5 day: plasma
Method: According to the study design, a randomized (1:1:1), open-label, parallel designed Phase 1b study comparing 3 dosing regimens of Compound 1 (9-[(2,2-dimethyl-propyl amino)-methyl-minocycline) in the treatment of female adults with cystitis was conducted. About 31 female patients with uncomplicated urinary tract infection (cystitis) who met inclusion and exclusion criteria were enrolled at 2-4 U.S. treatment centers. All enrolled subjects participated in the study for approximately 5-6 weeks. Following Screening of up to 48 hrs, eligible subjects were randomly assigned to receive one of 3 dosing regimens of Compound 1 treatment as shown below. Subjects in all treatment groups were domiciled for a 5-day treatment period. Details of the study are further described below.
Subjects were randomized (1:1:1) to one of the following treatment arms: • 1. Group 1: IV load, p.o. daily (200 mg Compound 1 IV every 24 hours (q24h) for 1 dose, followed by 300 mg p.o. q24h for a total of 5 days); • 2. Group 2: p.o. load, p.o. daily (300 mg Compound 1 p.o. every 12 hours (q12h) for 2 doses, followed by 300 mg p.o. q24h for a total of 5 days); • 3. Group 3: high p.o. load, high p.o. daily (450 mg Compound 1 p.o. q12h for 2 doses, followed by 450 mg p.o. q24h for a total of 5 days).
Blood samples were collected and analyzed for Compound 1 concentration at the following times. Pre-dose blood PK evaluations were based on blood samples collected within 10 min of each start (e.g., t=0 h dose for Day 1, t=24 h dose for Day 2, etc.). • Day 1: Pre-dose, and 0.75, 1, 2, 3, 4, 6, 8 and 12 hours after the t=0 h dose (12 h sample before the t=12 h dose for Groups 2 and 3); • Day 2: prior to the t=24 h dose; • Day 3: prior to the t=48 h dose; • Day 4: prior to the t=72 h dose; • Day 5: Pre-dose, and 0.5, 1, 2, 3, 4, 6, 8 and 12 hours after the t=96 h dose • Day 6: at t=120 h (24 hours after the t=96 h dose on Day 5)
Following the final oral doses on Day 5 the Compound 1 plasma concentration-time data for Groups 1, 2 and 3 were used to determine Cmax, Tmax, AUC24h, AUCt. Trough plasma concentrations (Ctrough) following each dose (Days 2 to 6) were also determined.
Blood samples for PK are collected at the time points specified below. • Day 1: Predose, and 0.75, 1, 2, 3, 4, 6, 8 and 12 hours after the t=0 h dose (12 h sample before the t=12 h dose for Groups 2 and 3); • Day 2: prior to the t=24 h dose; • Day 3: prior to the t=48 h dose; • Day 4: prior to the t=72 h dose; • Day 5: Predose, and 0.5, 1, 2, 3, 4, 6, 8 and 12 hours after the t=96 h dose • Day 6: at t=120 h (24 hours after the t=96 h dose on Day 5)
Blood was collected either by fresh venipuncture or via a cannula used solely for that purpose. The dates and times for all doses of test article and PK sample collections were recorded. For intravenously administered doses of test article, the start and stop times for each infusion were recorded. Immediately after the sample was collected, the tube was gently inverted 5 to 8 times to thoroughly mix the anticoagulant and then placed upright in a cryoblock or test tube rack surrounded by ice until centrifugation. Samples were centrifuged at 1500×g for 10 minutes at approximately 4° C. within 30 minutes of collection. The resultant plasma was divided into 2 equal aliquots, placed in individual cryovials, and immediately frozen at −20° C. or colder within 1 hour of collection. The samples were kept frozen at −20° C. or colder pending shipment to the bioanalytical laboratory.
The Compound 1 plasma concentration data was listed and summarized by time point and treatment group. The following PK parameters were estimated from the Compound 1 plasma concentration-time data: […]

[1] = Day 1, 300 mg po (n = 10), mean
[2] = Day 5, 300 mg po (n = 10), mean

Structure (SMILES): CN(C)c1cc(CNCC(C)(C)C)c(O)c2c1C[C@H]1C[C@H]3[C@H](N(C)C)C(O)=C(C(N)=O)C(=O)[C@@]3(O)C(O)=C1C2=O [Compound 1, 9-[(2,2-dimethyl-propylamino)-methyl]-minocycline]
- AUC0-12 [1]: 6260 ng·h/mL
- Cmax [1]: 880 ng/mL
- Cmin (Day 5, 200 mg IV, 300 mg po (n = 11), mean): 290 ng/mL
- AUC0-24 [2]: 13500 ng·h/mL
- Cmin [2]: 320 ng/mL
- Cmin (Day 5, 450 mg po (n = 10), mean): 480 ng/mL
- AUC(0-t) (female, human, intravenous, 200 mg, Day 1, 200 mg IV, 300 mg po (n = 11), mean, read-out: AUC0-24): 16000 ng·h/mL
- Tmax (female, human, intravenous, 200 mg, Day 1, 200 mg IV, 300 mg po (n = 11), median, read-out: tmax): 0.75 h
- Cmax (female, human, intravenous, 200 mg, Day 1, 200 mg IV, 300 mg po (n = 11), mean, read-out: Cmax): 2160 ng/mL
- AUC(0-t) (female, human, intravenous, 200 mg, Day 1, IV_PO300, read-out: AUC(0-24 hrs), Geo. Mean): 15600 ng·h/mL
- AUC(0-t) (female, human, intravenous, 200 mg, Day 1, IV_PO300, read-out: AUC(0-24 hrs), Mean): 16000 ng·h/mL
- AUC(0-t) (female, human, intravenous, 200 mg, Day 1, IV_PO300, read-out: AUC(0-24 hrs), Median): 14800 ng·h/mL
- AUC(0-inf) (female, human, intravenous, 200 mg, Day 1, IV_PO300, read-out: AUC(0-inf), Geo. Mean): 19700 ng·h/mL
- AUC(0-inf) (female, human, intravenous, 200 mg, Day 1, IV_PO300, read-out: AUC(0-inf), Mean): 19900 ng·h/mL
- AUC(0-inf) (female, human, intravenous, 200 mg, Day 1, IV_PO300, read-out: AUC(0-inf), Median): 19300 ng·h/mL
- Cmax (female, human, intravenous, 200 mg, Day 1, IV_PO300, read-out: Cmax, Geo. Mean): 1960 ng/mL
- Cmax (female, human, intravenous, 200 mg, Day 1, IV_PO300, read-out: Cmax, Mean): 2160 ng/mL
- Cmax (female, human, intravenous, 200 mg, Day 1, IV_PO300, read-out: Cmax, Median): 1850 ng/mL
- Tmax (female, human, intravenous, 200 mg, Day 1, IV_PO300, read-out: Tmax, Geo. Mean): 0.869 h
- Tmax (female, human, intravenous, 200 mg, Day 1, IV_PO300, read-out: Tmax, Mean): 0.897 h
- Tmax (female, human, intravenous, 200 mg, Day 1, IV_PO300, read-out: Tmax, Median): 0.75 h
- half-life (female, human, intravenous, 200 mg, Day 1, IV_PO300, read-out: T½, Geo. Mean (converted)): 11.3 h
- half-life (female, human, intravenous, 200 mg, Day 1, IV_PO300, read-out: T½, Mean (converted)): 11.4 h
- half-life (female, human, intravenous, 200 mg, Day 1, IV_PO300, read-out: T½, Median (converted)): 11.5 h
- AUC(0-t) (female, human, oral, 300 mg, Day 5, 200 mg IV, 300 mg po (n = 11), mean, read-out: AUC0-24): 13200 ng·h/mL
- Cmax (female, human, oral, 300 mg, Day 5, 200 mg IV, 300 mg po (n = 11), mean, read-out: Cmax): 1120 ng/mL
- Tmax (female, human, oral, 300 mg, Day 5, 200 mg IV, 300 mg po (n = 11), median, read-out: tmax): 3 h
- AUC(0-t) (female, human, oral, 300 mg, Day 1, PO300, read-out: AUC(0-12 hrs), Geo. Mean): 6150 ng·h/mL
- AUC(0-t) (female, human, oral, 300 mg, Day 1, PO300, read-out: AUC(0-12 hrs), Mean): 6260 ng·h/mL
- AUC(0-t) (female, human, oral, 300 mg, Day 1, PO300, read-out: AUC(0-12 hrs), Median): 6520 ng·h/mL
- Cmax (female, human, oral, 300 mg, Day 1, PO300, read-out: Cmax, Geo. Mean): 849 ng/mL
- Cmax (female, human, oral, 300 mg, Day 1, PO300, read-out: Cmax, Mean): 877 ng/mL
- Cmax (female, human, oral, 300 mg, Day 1, PO300, read-out: Cmax, Median): 916 ng/mL
- Tmax (female, human, oral, 300 mg, Day 1, PO300, read-out: Tmax, Geo. Mean): 2.96 h
- Tmax (female, human, oral, 300 mg, Day 1, PO300, read-out: Tmax, Mean): 2.99 h
- Tmax (female, human, oral, 300 mg, Day 1, PO300, read-out: Tmax, Median): 3 h
- AUC(0-t) (female, human, oral, 300 mg, Day 5, IV_PO300, read-out: AUC(0-24 hrs), Geo. Mean): 9550 ng·h/mL
- AUC(0-t) (female, human, oral, 300 mg, Day 5, IV_PO300, read-out: AUC(0-24 hrs), Mean): 13200 ng·h/mL
- AUC(0-t) (female, human, oral, 300 mg, Day 5, IV_PO300, read-out: AUC(0-24 hrs), Median): 15800 ng·h/mL
- Cmax (female, human, oral, 300 mg, Day 5, IV_PO300, read-out: Cmax, Geo. Mean): 808 ng/mL
- Cmax (female, human, oral, 300 mg, Day 5, IV_PO300, read-out: Cmax, Mean): 1120 ng/mL
- Cmax (female, human, oral, 300 mg, Day 5, IV_PO300, read-out: Cmax, Median): 1300 ng/mL
- concentration at 5 day (female, human, oral, 300 mg, Day 5, IV_PO300, read-out: Ctrough, Geo. Mean): 214 ng/mL
- concentration at 5 day (female, human, oral, 300 mg, Day 5, IV_PO300, read-out: Ctrough, Mean): 292 ng/mL
- concentration at 5 day (female, human, oral, 300 mg, Day 5, IV_PO300, read-out: Ctrough, Median): 378 ng/mL
- Tmax (female, human, oral, 300 mg, Day 5, IV_PO300, read-out: Tmax, Geo. Mean): 2.83 h
- Tmax (female, human, oral, 300 mg, Day 5, IV_PO300, read-out: Tmax, Mean): 2.6 h
- Tmax (female, human, oral, 300 mg, Day 5, IV_PO300, read-out: Tmax, Median): 3 h
- half-life (female, human, oral, 300 mg, Day 5, IV_PO300, read-out: T½, Geo. Mean (converted)): 13.2 h
